# Assay results from patent publication US12421212B2, “Substituted benzenecarboxamides as IL-17A modulators” (DiCE Alpha, Inc., priority 2019, dated 2025).
# Target: T1, IL-17A/A (Homo sapiens, UniProt Q16552)
# T1 construct: purchased Genscript Z03228
# T1 sequence (Q16552 24-155): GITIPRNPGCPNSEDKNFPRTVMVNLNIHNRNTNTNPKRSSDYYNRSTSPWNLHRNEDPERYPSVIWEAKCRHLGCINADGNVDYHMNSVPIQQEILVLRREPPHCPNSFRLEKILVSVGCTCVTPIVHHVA
# Experiment: IL-17A/A HEK-Blue Cell Assay
# Type: cell-based
# Details: HEK-Blue IL-17A reporter cell line, SEAP readout at A630, 20 hours incubation with IL-17A/A, top concentration 10 uM, 1 uM or 0.3 uM; for IC50: read-out: IL-17A/A inhibition (pIC50) (converted)
SMILES,IC50,IL-17A/A inhibition (pIC50)
CCC(=O)N[C@@H](C(=O)N1CCN(C)CC1)[C@@H](C)c1ccc(NC(=O)C(NC(=O)c2conc2CC)C2CCc3ccccc32)c(F)c1 (stereo partly drawn) [Compound 287],< 0.01 µM,
COc1cncc(C(F)(F)C(=O)N[C@H](C(=O)Nc2ccc([C@H](C)[C@@H](NC(=O)c3cnns3)C(=O)N3CCN(C)CC3)cc2F)C2CCCCC2)c1 [Compound 309],0.01 to 0.1 µM,
CCC(=O)N[C@@H](C(=O)N1CC(C(C)(C)O)C1)[C@@H](C)c1ccc(NC(=O)[C@@H](NC(=O)c2nonc2CC)[C@H]2CC[C@H](C)CC2)c(F)c1 [Compound 446],< 0.01 µM,
CCC(=O)N[C@H](Cc1ccc(NC(=O)[C@@H](NC(=O)c2cnc(C(=O)NC)[nH]2)C2CCCCC2)c(F)c1)C(=O)N1CCN(C)CC1 [Compound 781],,X1b (compounds were evaluated up to 10 uM and inhibited activity at 10 uM by less than 20%)
CCc1nonc1C(=O)N[C@H](C(=O)Nc1ccc([C@H](C)[C@@H](NC(=O)C(C)(F)F)C(=O)N2CCN(C)[C@H](C)C2)cc1F)[C@H]1CC[C@H](C)CC1 [Compound 503],0.01 to 0.1 µM,
CCc1nonc1C(=O)N[C@H](C(=O)Nc1ccc([C@H](C)[C@@H](NC(=O)N(C)C)C(=O)N2CCN(C)CC2)cc1F)[C@H]1CC[C@H](C)CC1 [Compound 514],< 0.01 µM,
C[C@@H](c1ccc(NC(=O)[C@@H](NC(=O)c2coc3ccncc23)[C@H]2CC[C@H](C)CC2)c(F)c1)[C@@H](NC(=O)c1cnns1)C(=O)N1CCN(C)CC1 [Compound 526],0.01 to 0.1 µM,
CCC(=O)N[C@H](Cc1ccc(NC(=O)[C@@H](NC(=O)c2c3c(nn2CC)CCC3)C2CCCCC2)c(F)c1)C(=O)N1CCN(C)CC1 [Compound 774],,X1b (compounds were evaluated up to 10 uM and inhibited activity at 10 uM by less than 20%)
CCC(=O)N[C@@H](C(=O)N1CCC(C)(O)CC1)[C@@H](C)c1ccc(NC(=O)[C@@H](NC(=O)C(F)(F)c2cncs2)[C@H]2CC[C@H](C)CC2)c(F)c1 [Compound 378],0.01 to 0.1 µM,
CCc1nonc1C(=O)N[C@H](C(=O)Nc1ccc([C@H](C)[C@@H](NC(=O)N(C)C2CC2)C(=O)N2CCN(C)CC2)cc1F)[C@H]1CC[C@H](C)CC1 [Compound 513],< 0.01 µM,
CCc1nonc1C(=O)N[C@H](C(=O)Nc1ccc([C@H](C)[C@@H](NC(=O)CC2CC2)C(=O)N2CCN(C)[C@@H](C)C2)cc1F)[C@H]1CC[C@H](C)CC1 [Compound 506],< 0.01 µM,
CCC(=O)N[C@@H](C(=O)N1C[C@H](C)N(C(C)C)[C@@H](C)C1)[C@@H](C)c1ccc(NC(=O)[C@@H](NC(=O)c2nonc2CC)[C@H]2CC[C@H](C)CC2)c(F)c1 [Compound 449],,A (compounds having a pIC50 of greater than or equal 8 as A)
CCC(=O)N[C@@H](C(=O)N1CCN(C)CC1)[C@@H](C)c1ccc(NC(=O)C(NC(=O)C(F)(F)C2CCCCC2)[C@H]2CC[C@H](C)CC2)c(F)c1 (stereo partly drawn) [Compound 419],0.01 to 0.1 µM,
CCC(=O)N[C@H](Cc1ccc(NC(=O)[C@@H](NC(=O)c2ccnn2CC)C2CCCCC2)c(F)c1)C(=O)NCCO [Compound 752],,X2b (compounds were evaluated up to 1 uM and inhibited activity at 1 uM by less than 20%)
CCC(=O)N[C@@H](C(=O)N1CCOCC1)[C@@H](C)c1ccc(NC(=O)[C@@H](NC(=O)C(F)(F)c2cccc(C#N)c2)C2CCCCCC2)c(F)c1 [Compound 349],< 0.01 µM,
CCC(=O)N[C@@H](C(=O)N1CCN(C)CC1)[C@@H](C)c1ccc(NC(=O)[C@@H](NC(=O)C(F)(F)c2cccc(C#N)c2)C2CCOCC2)c(F)c1 [Compound 674],0.1 to 10 µM,
CCC(=O)N[C@@H](C(=O)N1CCN(C)CC1)[C@@H](C)c1ccc(NC(=O)[C@@H](NC(=O)C(F)(F)C2CCN(C)CC2)C2CCCCC2)c(F)c1 [Compound 734],,"X2a (compounds were evaluated up to 1 uM and did not inhibit activity by >80%, however they showed some activity at 1 uM (less than 80% and more than 20%))"
CCC(=O)N[C@@H](C(=O)N1CCN(C)CC1)[C@@H](C)c1ccc(NC(=O)C(NC(=O)c2ccnn2CC)C(C)C2CCC(C)CC2)c(F)c1 (stereo partly drawn) [Compound 612],,X2b (compounds were evaluated up to 1 uM and inhibited activity at 1 uM by less than 20%)
CC(C)n1nccc1C(=O)N[C@H](C(=O)Nc1ccc([C@H](C)[C@@H](NC(=O)c2ccnn2C2CC2)C(=O)N2CCN(C)CC2)cc1F)[C@H]1CC[C@H](C)CC1 [Compound 399],< 0.01 µM,
"CCC(=O)N[C@@H](C(=O)N1CCN(C)CC1)[C@@H](C)c1ccc(NC(=O)C(NC(=O)c2ccnn2CC)C(CC)c2ccc(F)cc2)c(F)c1 (single isomer, unassigned) [Compound 554]",0.1 to 10 µM,
CCc1nonc1C(=O)N[C@H](C(=O)Nc1ccc([C@H](C)[C@@H](NC(=O)c2ncns2)C(=O)N2CCN(C)CC2)cc1F)[C@H]1CC[C@H](C)CC1 [Compound 575],,"X3a (compounds were evaluated up to 0.3 uM and did not inhibit activity by >80%, however they showed some activity at 0.3 uM (less than 80% and more than 20%))"
"CCC(=O)N[C@@H](C(=O)N1CCN(C)CC1)[C@@H](C)c1ccc(NC(=O)C(NC(=O)c2ccnn2CC)C(CC)c2ccc(F)cc2)c(F)c1 (single isomer, unassigned) [Compound 556]",,"X2a (compounds were evaluated up to 1 uM and did not inhibit activity by >80%, however they showed some activity at 1 uM (less than 80% and more than 20%))"
"[2H]C([2H])([2H])C1CCC(C(NC(=O)c2nonc2CC)C(=O)Nc2ccc([C@H](C)[C@@H](NC(=O)N(C)C3CC3)C(=O)N3CCN(C)[C@H](C)C3)cc2F)CC1 (single isomer, unassigned) [Compound 615]",< 0.01 µM,

# Continued, in another order:
IC50,SMILES,IL-17A/A inhibition (pIC50)
0.01 to 0.1 µM,CCn1nccc1C(=O)N[C@H](C(=O)Nc1ccc([C@H](C)[C@@H](NC(=O)C2(F)CC2)C(=O)N2CCN(C)CC2)cc1F)C1CCCCCC1 [Compound 326],
< 0.01 µM,CCn1nccc1C(=O)N[C@H](C(=O)Nc1ccc([C@H](C)[C@@H](NC(=O)[C@H](C)OC)C(=O)N2CCN(C)CC2)cc1F)[C@H]1CC[C@H](C)CC1 [Compound 476],
0.1 to 10 µM,CCC(=O)N[C@@H](C(=O)N1CCN(C)CC1)[C@@H](C)c1ccc(NC(=O)[C@@H](NC(=O)C(F)(F)C23CC(C2)C3)C2CCCCC2)c(F)c1 [Compound 625],
0.1 to 10 µM,CCC(=O)NC(Cc1ccc(NC(=O)[C@@H](NC(=O)c2ccnn2CC)C2CCCCC2)c(F)c1)C(=O)N1CCN(Cc2cccnc2)CC1 (stereo partly drawn) [Compound 652],
0.01 to 0.1 µM,CCC(=O)N[C@@H](C(=O)N1CCOCC1)[C@@H](C)c1ccc(NC(=O)[C@@H](NC(=O)c2ccnn2CC)[C@H]2CC[C@H](C)CC2)c(F)c1 [Compound 342],
0.01 to 0.1 µM,CCn1nccc1C(=O)N[C@H](C(=O)Nc1ccc([C@H](C)[C@@H](NC(=O)[C@H](C)CC(=O)O)C(=O)N2CCN(C)CC2)cc1F)[C@H]1CC[C@H](C)CC1 [Compound 474],
0.01 to 0.1 µM,CCC(=O)N[C@@H](C(=O)N1CCN(C)CC1)[C@@H](C)c1ccc(NC(=O)[C@@H](NC(=O)c2coc3cc(OC)ccc23)C2CCCCC2)c(F)c1 [Compound 255],
0.01 to 0.1 µM,CCC(=O)N[C@@H](C(=O)N1CCOCC1)[C@@H](C)c1ccc(NC(=O)[C@@H](NC(=O)c2ccnn2CC)C2CCCCCC2)c(F)c1 [Compound 351],
< 0.01 µM,CCn1nccc1C(=O)N[C@H](C(=O)Nc1ccc([C@H](C)[C@@H](NC(=O)C(C)(F)F)C(=O)N2CCN(C)[C@H](C)C2)cc1F)[C@H]1CC[C@H](C)CC1 [Compound 480],
0.1 to 10 µM,CCC(=O)N[C@H](Cc1ccc(NC(=O)[C@@H](NC(=O)C(F)(F)c2cccc(NS(C)(=O)=O)c2)C2CCCCC2)c(F)c1)C(=O)N1CCN(C)CC1 [Compound 642],
0.01 to 0.1 µM,CCn1nccc1C(=O)N[C@H](C(=O)Nc1ccc([C@H](C)[C@@H](NC(=O)c2cccs2)C(=O)N2CCN(C)CC2)cc1F)C1CCCCC1 [Compound 304],
0.01 to 0.1 µM,CCn1nccc1C(=O)N[C@H](C(=O)Nc1ccc([C@H](C)[C@@H](NC(=O)NC2CC2)C(=O)N2CCN(C)CC2)cc1F)C1CCCCC1 [Compound 314],
0.01 to 0.1 µM,"CCC(=O)N[C@@H](C(=O)N1CCN(C)CC1)[C@@H](C)c1ccc(NC(=O)C(NC(=O)c2ccnn2CC)C(C)C2CCC(F)(F)CC2)c(F)c1 (single isomer, unassigned) [Compound 606]",
0.1 to 10 µM,CCC(=O)N[C@H](Cc1ccc(NC(=O)[C@@H](NC(=O)c2ccnn2CC)C2CCCCC2)c(F)c1)C(=O)Nc1cccnc1 [Compound 694],
0.01 to 0.1 µM,CCc1nonc1C(=O)N[C@H](C(=O)Nc1ccc([C@H](C)[C@@H](NC(=O)c2ccnn2C)C(=O)N2CCN(C)CC2)cc1F)[C@H]1CC[C@H](C)CC1 [Compound 490],
0.01 to 0.1 µM,CCn1nccc1C(=O)N[C@H](C(=O)Nc1ccc(C[C@@H](NC(=O)c2cnns2)C(=O)N2CCN(C)CC2)cc1F)C1CCCCC1 [Compound 322],
0.1 to 10 µM,CCC(=O)N[C@@H](C(=O)N1CCN(C)CC1)[C@@H](CC)c1ccc(NC(=O)[C@@H](NC(=O)c2ccnn2CC)C2CCCCC2)cc1 [Compound 680],
0.01 to 0.1 µM,CCn1nccc1C(=O)N[C@H](C(=O)Nc1ccc([C@H](C)[C@@H](NC(=O)[C@H](C)F)C(=O)N2CCN(C)CC2)cc1F)[C@H]1CC[C@H](C)CC1 [Compound 472],
0.1 to 10 µM,CCC(=O)N[C@@H](C(=O)N1CCN(Cc2ccccc2)CC1)[C@H](C)c1ccc(NC(=O)[C@@H](NC(=O)c2ccnn2CC)C2CCCCC2)c(F)c1 [Compound 670],
0.1 to 10 µM,CCC(=O)N[C@H](Cc1ccc(NC(=O)[C@@H](NC(=O)c2ccnn2CC)C2CCCCC2)c(F)c1)C(=O)N1CCN(C)C[C@@H]1C [Compound 686],
0.1 to 10 µM,CCC(=O)N[C@H](Cc1ccc(NC(=O)[C@@H](NC(=O)c2ccnn2CC)C2CCCCC2)c(Cl)c1)C(=O)N1CCN(C)CC1 [Compound 763],
0.1 to 10 µM,CCC(=O)N[C@H](Cc1ccc(NC(=O)[C@@H](NC(=O)c2conc2CNC(C)=O)C2CCCCC2)c(F)c1)C(=O)N1CCN(C)CC1 [Compound 764],
